The values that follow come from patent publication US20240132518A1, “CEPHALOSPORIN ANTIBACTERIAL COMPOUND AND PREPARATION METHOD THEREFOR” (priority 2021, published 2024).

Data set [1] deals with Carbapenem-resistant Acinetobacter baumannii (CRAB). Kind of data set: Antibacterial MIC assay (ID-CAMHB), carbapenem-resistant Acinetobacter baumannii. In kind it is cell-based. Here is the method: (§1) 1. The test compounds were dissolved in sterile normal saline, vortexed for uniformly mixing, and diluted in a 2-fold dilution with the sterile normal saline (11 concentration points in total). The test concentration range was 32-0.031 μg/mL, and two duplicate wells were set for each concentration. Additional wells without drug dosing were set as growth controls.
(§2) 2. 4 μL of the diluent was added to 196 μL of the bacterial suspension in a 96-well plate (the bacterial count in the bacterial suspension was 2-8×10^5 colony forming units/mL).
(§3) The minimum inhibitory concentration (MIC) assay was performed with reference to the Clinical and Laboratory Standards Institute (CLSI) guidelines.

The test system of data set [2] is Carbapenem-resistant Enterobacteriaceae (CRE, Klebsiella pneumoniae). The experiment in a line: Antibacterial MIC assay (ID-CAMHB), carbapenem-resistant Enterobacteriaceae. The data set is classed as cell-based. Here is the method:
as §1, §2, §3

Data set [3] is described as follows: Pharmacokinetic study in cynomolgus monkeys. The data set is classed as in vivo. Particulars: cynomolgus monkey, 10 mg/kg single intravenous infusion, plasma, individual animals. The method, then:
An appropriate amount of a test compound was weighed precisely and added to a container, and 0.9% sodium chloride injection and 0.2 M NaOH solution were added thereto in an ice bath until the test compound was completely dissolved, so that a sample solution at a concentration of 2 mg/mL was obtained followed by storage at 2-8° C. for later use.
• Species and strain: cynomolgus monkey • Animal grade: general grade • Animal source: Guangxi Xiongsen Primate Experimental Animal Breeding Development Co., Ltd. • Number of the using of laboratory animal: SYXK (Su) 2019-0012
6 cynomolgus monkeys (half male and half female) were selected and randomly divided into 3 groups with 1 animal/sex in each group. The cynomolgus monkeys were administered with the test sample at a dose of 10 mg/kg by the single intravenous infusion. Blood samples were collected from each group of animals at the following time points: before administration, and 5 min, 15 min, 0.5 h, 1 h, 2 h, 4 h, 6 h, and 8 h after administration. In the test, the concentration of each test compound in the plasma of the cynomolgus monkey was detected by the LC-MS/MS method, and the lower limits of quantification of the analysis methods for the plasma samples were all 1 μg/mL. The plasma concentration data were analyzed by the non-compartmental analysis (NCA) of the analysis software for pharmacokinetic data, WinNonlin, pharmacokinetic parameters were calculated, and pharmacokinetic characteristics of the test compounds in cynomolgus monkeys after administration were investigated, with the results shown in the following table.

Data set [4] is described as follows: Pharmacokinetic study in ICR mice. In kind it is in vivo. Conditions: 100 mg/kg subcutaneous injection, plasma. Here is the method: The formulation for administration was prepared on ice. A proper amount of the test compound was precisely weighed out, and a 90% volume of normal saline was slowly added. The mixture was ultrasonically stirred in an ice-water bath until no large pieces existed. After the mixture was well mixed, a 1 M NaOH solution was added in small portions using a pipette.
• Species and strain: ICR mice • Animal grade: SPF • Animal source: Medicilon: 999M-018
Administration by subcutaneous injection: 3 mice/sex/time point; blood samples were collected at 9 time points: 0.083 h, 0.25 h, 0.5 h, 1 h, 2 h, 4 h, 6 h, 8 h and 24 h after administration. The collected blood samples were placed in EDTA-K2 anticoagulation blood collection tubes. The collected whole blood was placed on ice and centrifuged at 6800 g at 2-8° C. for 6 min to separate plasma within 1 h. After the centrifugation, the plasma was transferred to a centrifuge tube to which a plasma stabilizer had been added in advance (plasma:concentrated phosphoric acid=100:0.2; for example, 1 μL of 10% concentrated phosphoric acid was added to 50 μL of plasma). All the animals were subjected to careful clinical observation before administration and at each of the blood collection time points after administration, and the adverse reaction symptoms in the animals were recorded.

The test system of data set [5] is Carbapenem-resistant Pseudomonas aeruginosa (CRPA). The experiment in a line: Antibacterial MIC assay (ID-CAMHB), carbapenem-resistant Pseudomonas aeruginosa. The data set is classed as cell-based. The method, then:
as §1, §2, §3

For data set [6], the system named is Control strain (Escherichia coli) ATCC 25922. The experiment in a line: Antibacterial MIC assay (ID-CAMHB), control strain Escherichia coli. The data set is classed as cell-based. Here is the method:
as §1, §2, §3

The subject of data set [7] is Control strain (Pseudomonas aeruginosa) ATCC 27853. The experiment in a line: Antibacterial MIC assay (ID-CAMHB), control strain Pseudomonas aeruginosa. Particulars: ATCC27853. The data set is classed as cell-based. Here is the method: as §1, §2, §3
Where [8] appears, read: strain FDA-CDC AR-BANK#0063, AMR gene OXA-23, OXA-65, OXA-24, sul2, read-out: MIC.
The mark [9] stands for this setting: strain FDA-CDC AR-BANK#0453, AMR gene KPC-3, OmpK35, oqxA, oqxB, SHV-11, TEM-1B.
Setting [10] is: strain FDA-CDC AR-BANK#0052, AMR gene OXA-58, OXA-100, sul2.
Setting [11] is: strain FDA-CDC AR-BANK#0070, AMR gene OXA-58, OXA-100, sul2.
The mark [12] stands for this setting: strain FDA-CDC AR-BANK#0361, AMR gene TEM-1, SHV-12, KPC-2.
Setting [13] is: strain FDA-CDC AR-BANK#0362, AMR gene TEM-1, SHV-11, KPC-2.
The mark [14] stands for this setting: strain FDA-CDC AR-BANK#0363, AMR gene TEM-1, SHV-12, KPC-2.
Where [15] appears, read: strain FDA-CDC AR-BANK#0438, AMR gene aph(3′)-Ia, dfrA12, KPC-3, OmpK35, oqxA, oqxB, SHV-11.
The mark [16] stands for this setting: strain FDA-CDC AR-BANK#0439, AMR gene aac(6′)-Il, aadA1b, BCR1, IMP-18, OXA-50.
The mark [17] stands for this setting: strain FDA-CDC AR-BANK#0457, AMR gene aadA6, VIM-2.
[18] abbreviates: both sexes, cynomolgus, iv, 10 mg/kg.

For orientation: MIC means the lowest concentration found to suppress growth. As a reminder, the Vd is the apparent volume that relates the amount in the body to the concentration in plasma or blood. Broadly, the AUC(0-inf) is total exposure, with the tail of the curve extrapolated. High values mean more exposure, low ones less exposure. Broadly, the AUC(0-t) is exposure summed from dosing to a finite time, without extrapolation to infinity. The term Cmax denotes the maximum level reached in the sampled fluid or tissue. One may read the Tmax as the time at which the peak concentration occurs. A word on the half-life: it is the time needed for the level to fall by half in the phase considered. Lower therefore signals fast loss. What is called clearance is the rate of elimination divided by the concentration. A high value points to a high capacity for elimination. The term MRT denotes a mean duration of stay, worked out from the concentration-time curve.

Molecules are shown by their SMILES. In brackets after ≈: the same amount, converted by molar mass. Read-outs that look alike come from different tables or passages of the source.

Regarding `CC(C)(O/N=C(\C(=O)N[C@@H]1C(=O)N2C(C(=O)[O-])=C(C[N+]3(CCNC(=O)c4ccc(O)c(O)c4Cl)CCCC3)CS[C@H]12)c1csc(N)n1)C(=O)O` [Cefiderocol, reference compound], the MIC in data set [1] (setting [8]) turned out to be 4 µg/mL (≈ 5.32 µM). It took 1 µg/mL (≈ 1.33 µM) to inhibit growth in data set [2] (setting [9]) (MIC). In addition, the Vd in data set [3] (10 mg/kg) worked out at 379.63 mL/kg. In data set [4], this compound gave an AUMC0-inf of 150.7 h · h · ug · mL^−1, an AUMC0-t of 150.3 h · h · ug · mL^−1, a Kel of 1.45 h⁻¹ and an MRTPO of 34.6 min. Moreover, in data set [4] (both sexes, mouse, sc), the AUC(0-inf) turned out to be 261 µg·h/mL, the area under the curve AUC(0-t) is 261 µg·h/mL, the Cmax came to 363 µg/mL and the Tmax is 15 min. Further, the half-life in data set [4] (both sexes, mouse, sc) is 28.6 min.

Take `CC(C)(O/N=C(\C(=O)N[C@@H]1C(=O)N2C(C(=O)[O-])=C(C[N+]3(CCN(CCCNC(=O)c4ccc(O)c(O)c4Cl)C(=O)c4ccc(O)c(O)c4Cl)CCCC3)CS[C@H]12)c1csc(N)n1)C(=O)O` [Compound 1]: the MIC in data set [1] (strain FDA-CDC AR-BANK#0036, AMR gene strB, OXA-65, OXA-24, strA, sul2, read-out: MIC) came out at 0.25 µg/mL (≈ 0.255 µM); in data set [1] (setting [10]), 0.125 µg/mL (≈ 0.128 µM); in data set [1] (setting [8]), 32 µg/mL (≈ 32.7 µM); in data set [1] (setting [11]), 0.125 µg/mL (≈ 0.128 µM); in data set [1] (strain FDA-CDC AR-BANK#0101, AMR gene strB, OXA-65, OXA-24, strA, sul2, read-out: MIC) it was 1 µg/mL (≈ 1.02 µM); in data set [2] (setting [12]), 0.5 µg/mL (≈ 0.51 µM). In addition, the MIC stood at 0.25 µg/mL (≈ 0.255 µM) in data set [2] (setting [13]); 0.125 µg/mL (≈ 0.128 µM) in data set [2] (setting [14]); 0.5 µg/mL (≈ 0.51 µM) in data set [2] (setting [15]); 1 µg/mL (≈ 1.02 µM) in data set [2] (setting [9]); 0.125 µg/mL (≈ 0.128 µM) in data set [5] (setting [16]); 2 µg/mL (≈ 2.04 µM) in data set [5] (strain FDA-CDC AR-BANK#0441, AMR gene KPC-2, read-out: MIC). The MIC came to 2 µg/mL (≈ 2.04 µM) in data set [5] (strain FDA-CDC AR-BANK#0444, AMR gene aac(6′)-Il, dfrB5, OXA-4, tet(G), VIM-2, read-out: MIC); 0.125 µg/mL (≈ 0.128 µM) in data set [5] (setting [17]); 0.0625 µg/mL (≈ 0.0638 µM) in data set [6] (ATCC25922, ID-CAMHB, control strain ATCC 25922, read-out: MIC); 0.125 µg/mL (≈ 0.128 µM) in data set [7]. In data set [3] (setting [18]), this compound yielded an AUC(0-inf) of 32900 ng·h/mL. The compound further registered an AUC(0-t) in data set [3] (setting [18]) of 29300 ng·h/mL. In data set [3] (setting [18]), this compound gave a clearance of 5.06 mL/min/kg. Also, the half-life in data set [3] (setting [18]) is 37.2 min. Further, the Cmax in data set [3] (both sexes, cynomolgus, iv, 10 mg/kg, read-out: Cmax) was 35500 ng/mL; in data set [3] (10 mg/kg) it was 30640 ng/mL. Moreover, the MRT amounted to 38.4 min in data set [3] (both sexes, cynomolgus, iv, 10 mg/kg, read-out: MRT) and 37.2 min in data set [3] (10 mg/kg). Moreover, the Vd turned out to be 270 mL/kg in data set [3] (both sexes, cynomolgus, iv, 10 mg/kg, read-out: Vd) and 313.34 mL/kg in data set [3] (10 mg/kg). Further, in data set [3] (both sexes), the Tmax worked out at 4.8 min. The compound also came in with an AUC last in data set [3] (10 mg/kg) of 23.44 µg·h/mL. The compound further had an AUCinf in data set [3] (10 mg/kg) of 25.64 µg·h/mL. The compound also registered a CL in data set [3] (10 mg/kg) of 390.01 mL/h/kg. This compound also showed a t1/2 in data set [3] (10 mg/kg) of 33.6 min.

`C[C@H](CN(CCCNC(=O)c1ccc(O)c(O)c1Cl)C(=O)c1ccc(O)c(O)c1Cl)[N+]1(CC2=C(C(=O)[O-])N3C(=O)[C@@H](NC(=O)/C(=N\OC(C)(C)C(=O)O)c4csc(N)n4)[C@H]3SC2)CCCC1` [Compound 2]: the MIC amounted to 0.5 µg/mL (≈ 0.503 µM) in data set [1] (strain FDA-CDC AR-BANK#0036, AMR gene strB, OXA-65, OXA-24, strA, sul2); 0.125 µg/mL (≈ 0.126 µM) in data set [1] (setting [10]); 4 µg/mL (≈ 4.02 µM) in data set [1] (strain FDA-CDC AR-BANK#0063, AMR gene OXA-23, OXA-65, OXA-24, sul2); 0.25 µg/mL (≈ 0.252 µM) in data set [1] (setting [11]); 1 µg/mL (≈ 1.01 µM) in data set [1] (strain FDA-CDC AR-BANK#0101, AMR gene strB, OXA-65, OXA-24, strA, sul2); 1 µg/mL (≈ 1.01 µM) in data set [2] (setting [12]). Further, the MIC stood at 0.25 µg/mL (≈ 0.252 µM) in data set [2] (setting [13]); 0.5 µg/mL (≈ 0.503 µM) in data set [2] (setting [14]); 1 µg/mL (≈ 1.01 µM) in data set [2] (setting [15]); 1 µg/mL (≈ 1.01 µM) in data set [2] (setting [9]); 0.5 µg/mL (≈ 0.503 µM) in data set [5] (setting [16]); 8 µg/mL (≈ 8.05 µM) in data set [5] (strain FDA-CDC AR-BANK#0441, AMR gene KPC-2). Further, the MIC in data set [5] (strain FDA-CDC AR-BANK#0444, AMR gene aac(6′)-Il, dfrB5, OXA-4, tet(G), VIM-2) amounted to 4 µg/mL (≈ 4.02 µM); in data set [5] (setting [17]), 0.25 µg/mL (≈ 0.252 µM); in data set [6] (ATCC25922), 0.125 µg/mL (≈ 0.126 µM); in data set [7] it was 0.0625 µg/mL (≈ 0.0629 µM).
